Values quoted from earlier work in patent US20080089936A1, “PROLONGED RELEASE FORMULATION OF ACTIVE PRINCIPLES HAVING A PH-DEPENDENT SOLUBILITY” (SANOFI-AVENTIS, priority 2005, published 2008).

Settings: hypnotic agent, oral

In the case of `Cc1ccc(-c2nc3ccc(C)cn3c2CC(=O)N(C)C)cc1` [zolpidem], the duration of action is given as “up to 6 hours”.
